Data: paper PMC5354814, “In silico and in vitro drug screening identifies new therapeutic approaches for Ewing sarcoma” (Oncotarget, 2016)

What was measured:
[1] = test system: RD-ES; assay: Hits validation, dose-response cell proliferation (CellTiter-Glo); type: cell-based; details: 12-point dose-response 50 μmol/L to 1 nmol/L, mean ± SD
Method: (§1) For hits validation and combination study, cells were harvested and aliquoted into 384-well plates at concentrations of 750–1,500 cells per well in a total of 20 μl/well using a Matrix Wellmate (Thermo Scientific). Five μl of culture media containing either vehicles or drug were added to each well the next day (drug concentrations range from 1 nmol/L to 50 μmol/L). For combination study, selected drugs were archived in robotically accessible plates, to which media was added in preparation for addition to master plates by a Nimbus 96 liquid-dispensing workstation (Hamilton). Liquid transfers to dilution and assay plates were handled using the same workstation. Each 384-well master plate contained four 9 by 9 dose-matrix blocks, with eight serial two-fold dilutions (concentrations range from 7.8 nmol/L to 1 μmol/L). Additional wells were reserved for untreated, and vehicle-treated control wells. Cell proliferation was evaluated using Cell-Titer Glo® reagents (Promega). IC50 values were determined for each drug using SigmaPlot (Systat Software). The combination index values were calculated using SigmaPlot (Systat Software) and CompuSyn.

[2] = test system: A673; assay: as above; type: cell-based; details: 12-point dose-response 50 μmol/L to 1 nmol/L, mean ± SD
Method: as §1

[3] = test system: Hs 863.T.; assay: as above; type: cell-based; details: control cell line, 12-point dose-response, mean ± SD
Method: as §1

[4] = test system: SK-ES-1; assay: as above; type: cell-based; details: 12-point dose-response 50 μmol/L to 1 nmol/L, mean ± SD
Method: as §1

[5] = test system: Hs 822.T.; assay: as above; type: cell-based; details: control cell line, 12-point dose-response, mean ± SD
Method: as §1

[6] = test system: COG-E-352; assay: as above; type: cell-based; details: 12-point dose-response 50 μmol/L to 1 nmol/L, mean ± SD
Method: as §1

[7] = test system: TC-71; assay: as above; type: cell-based; details: 12-point dose-response 50 μmol/L to 1 nmol/L, mean ± SD
Method: as §1

[8] = test system: CHLA-258; assay: as above; type: cell-based; details: 12-point dose-response 50 μmol/L to 1 nmol/L, mean ± SD
Method: as §1

[9] = test system: EWS cell lines; assay: Combination study (dose matrix, CellTiter-Glo, combination index); type: cell-based
Method: Next, the predicted and library screened drugs were extensively validated. The in vitro activities of each drug hit were evaluated in an expanded panel of EWS cell lines (either the EWS/FLI1 or the EWS/ERG fusion) (Table 1) and confirmed employing 12-point dose-response curves ranging from 50 μmol/L to 1 nmol/L, with triplicate sampling (Table 3). As mentioned above, one of the most notable drug hits discovered through both the in silico and in vitro drug screening approaches was auranofin. Based on this finding, we subsequently screened auranofin against six other marketed or investigational anticancer drug hits (carfilzomib, elesclomol, bortezomib, geldanamycin, AUY922, and ganetespib, Supplementary Figures S1–S5 and Figure 2). These drugs were chosen based on their known mechanisms and safety profiles. […] We evaluated the anti-proliferation effect in combination treatments using the EWS and control cell lines. […]
For hits validation and combination study, cells were harvested and aliquoted into 384-well plates at concentrations of 750–1,500 cells per well in a total of 20 μl/well using a Matrix Wellmate (Thermo Scientific). […] Cell proliferation was evaluated using Cell-Titer Glo® reagents (Promega). IC50 values were determined for each drug using SigmaPlot (Systat Software). The combination index values were calculated using SigmaPlot (Systat Software) and CompuSyn.

[10] = test system: A673 cells; assay: In vivo xenograft mouse model; details: auranofin 12 mg/kg i.p. 5 days per week, ganetespib 150 mg/kg i.v. once weekly; p < 0.05
Method: To assess the antitumor activity of auranofin (using an alternative delivery approach), ganetespib and the combination treatments in vivo, we generated a xenograft nude mouse model by injecting A673 cells intramuscularly proximal to the tibia. Based on the dose tolerance and pharmacokinetic studies described above, we administered auranofin at a tolerable daily i.p. dose that achieved adequate systemic drug exposure. Auranofin was administered with a dose of 12 mg/kg through an i.p. injection once a day for 5 days per week, and ganetespib was administered with a dose of 150 mg/kg through an i.v. injection once weekly. Mice that grew palpable tumors were randomized into four groups: vehicle, auranofin-only, ganetespib-only, and the combination.
The guidelines adopted by the Institutional Animal Care and Use Committee of the University of Kansas Medical Center (KUMC-IACUC) were followed in all performed procedures. All experimental protocols were approved by KUMC-IACUC. Homozygous athymic nude (Foxn1nu/Foxn1nu) female mice at the age of 4-weeks were purchased from Jackson Laboratories. After one week, one million A673 cells in PBS (pH = 7.3) were injected into mice. The cells were injected intramuscularly proximal to the tibia and treatment started after 15 days of inoculation. Mice developing palpable tumors were divided into 4 arms and treated for up to 18 days: vehicle (20% Cremophor RH40 and 80% D5W iv and 0.5% HPMC K4M ip), auranofin (12 mg/kg i.p. injection 5 days per week), ganetespib (150 mg/kg i.v. injection once weekly), as well as auranofin and ganetespib combined. Mice were evaluated for overall health and weighed every week. When tumor size impeded mobility, mice were sacrificed and necropsies were performed. Tumors were then dissected, measured and processed for analysis. The liver, kidneys, and spleen were also snap frozen in liquid nitrogen or fixed in 10% neutral buffered formalin and paraffin embedded for toxicity studies. Tissues were then subjected to hematoxylin and eosin (H&E) staining and immunohistochemical staining. […]

[11] = test system: Hs 919.T.; assay: Hits validation, dose-response cell proliferation (CellTiter-Glo); type: cell-based; details: control cell line, 12-point dose-response, mean ± SD
Method: These drugs were chosen based on their known mechanisms and safety profiles. We also tested the synergy between these drug hits (Supplementary Figures S6–S11). […] We evaluated the anti-proliferation effect in combination treatments using the EWS and control cell lines.
as §1

[12] = test system: cancer cells with EWS-FLI1 mutations; design: method as in GDSC database, cancerrxgene.org; details: ref GDSC database, cancerrxgene.org; cited from earlier work
[13] = 24-month study in rats; auranofin 1.0 or 2.5 mg/kg/day orally; gold sodium thiomalate 2 or 6 mg/kg twice weekly; cited from earlier work

Row | SMILES | IC50 ([1]; RD-ES) [µM] | IC50 ([2]; Homo sapiens, A673) [µM] | IC50 [3] [µM] | IC50 ([4]; Homo sapiens, SK-ES1) [µM] | IC50 [5] [µM] | IC50 [6] [µM] | IC50 ([7]; TC-71) [µM] | IC50 [8] [µM] | synergy in combination with auranofin [9] | survival rate versus control group [10] | IC50 [11] [µM] | sensitivity of cancer cells with EWS-FLI1 mutations compared with wild-type [12] | frequency of renal tubular cell karyomegaly and cytomegaly and renal adenoma [13] | IC50 [1] [µM] | IC50 [2] [µM] | IC50 [4] [µM] | IC50 [7] [µM]
1 | CC(C)c1cc(-c2n[nH]c(=O)n2-c2ccc3c(ccn3C)c2)c(O)cc1O [ganetespib] | 0.02 ± 0.02 | 0.04 ± 0.01 | > 20 | 0.01 ± 0.001 | > 20 | < 0.003 | < 0.003 | < 0.003 | highly synergistic | significantly increased the survival rate | > 20 | – | – | – | – | – | –
2 | CN(NC(=O)CC(=O)NN(C)C(=S)c1ccccc1)C(=S)c1ccccc1 [Elesclomol] | 0.05 ± 0.06 | 0.006 ± 0.006 | > 20 | 0.01 ± 0.001 | > 20 | 0.007 ± 0.002 | < 0.003 | < 0.003 | – | – | > 20 | preferentially sensitive | – | – | – | – | –
3 | CN1CCN(CCCN2c3ccccc3Sc3ccc(C(F)(F)F)cc32)CC1 [Trifluoperazine] | 18.2 ± 2.54 | 15.6 ± 3.55 | 9.84 ± 2.28 | 16.7 ± 3.14 | 10.6 ± 2.45 | 12.1 ± 1.58 | 16.4 ± 3.46 | 13.6 ± 4.8 | – | – | 16.8 ± 4.2 | – | – | – | – | – | –
4 | CCNC(=O)c1noc(-c2cc(C(C)C)c(O)cc2O)c1-c1ccc(CN2CCOCC2)cc1 [AUY922] | 0.009 ± 0.001 | 0.02 ± 0.002 | > 20 | 0.03 ± 0.002 | > 20 | < 0.003 | < 0.003 | < 0.003 | highly synergistic | – | > 20 | – | – | – | – | – | –
5 | COc1cc2nc(N(C)CCCNC(=O)C3CCCO3)nc(N)c2cc1OC (centres unmarked) [Alfuzosin] | > 50 | > 50 | > 50 | > 50 | > 50 | > 50 | > 50 | > 50 | – | – | > 50 | – | – | – | – | – | –
6 | c1coc(CNc2ncnc3[nH]cnc23)c1 [Kinetin] | > 50 | > 50 | > 50 | > 50 | > 50 | > 50 | > 50 | > 50 | – | – | > 50 | – | – | – | – | – | –
7 | O=C(Nc1ccc([N+](=O)[O-])cc1Cl)c1cc(Cl)ccc1O [Niclosamide] | 8.54 ± 1.55 | 7.02 ± 1.23 | 10.5 ± 2.66 | 12.5 ± 2.36 | 15.2 ± 3.51 | 0.42 ± 0.07 | 0.79 ± 0.47 | 0.7 ± 0.14 | – | – | 10.6 ± 2.84 | – | – | – | – | – | –
8 | COC1=C2C[C@@H](C)C[C@H](OC)[C@H](O)[C@@H](C)/C=C(\C)[C@H](OC(N)=O)[C@@H](OC)/C=C\C=C(/C)C(=O)NC(=CC1=O)C2=O [Geldanamycin] | 0.05 ± 0.003 | 1.93 ± 0.05 | > 20 | 0.03 ± 0.002 | > 20 | < 0.003 | < 0.003 | < 0.003 | – | – | > 20 | – | – | – | – | – | –
9 | COc1cc(NC(C)CCCN)c2ncccc2c1 (centres unmarked) [Primaquine] | > 25 | 32.5 ± 6.58 | > 25 | > 25 | > 25 | 13.3 ± 4.09 | 14.3 ± 3.71 | 7.14 ± 2.21 | – | – | > 50 | – | – | – | – | – | –
10 | O=C([O-])CC([S-])C(=O)[O-].[Au+].[Na+].[Na+] (centres unmarked) [gold sodium thiomalate] | – | – | – | – | – | – | – | – | – | – | – | – | significant incr ease | – | – | – | –
11 | COc1ccc(C[C@H]2NC[C@H](O)[C@H]2OC(C)=O)cc1 [Anisomycin] | – | – | 0.2 ± 0.01 | – | 0.15 ± 0.05 | 0.02 ± 0.01 | – | 0.08 ± 0.01 | – | – | 0.15 ± 0.02 | – | – | 0.15 ± 0.02 | 0.12 ± 0.01 | 0.2 ± 0.01 | 0.04 ± 0.01
12 | COc1cc2nc(N3CCN(C(=O)C4COc5ccccc5O4)CC3)nc(N)c2cc1OC (centres unmarked) [Doxazosin] | > 25 | 5.6 ± 1.52 | 14.6 ± 3.02 | 20.4 ± 5.87 | 15.7 ± 2.12 | 17.1 ± 6.58 | 22.5 ± 9.35 | 16.1 ± 6.78 | – | – | 18.5 ± 3.27 | – | – | – | – | – | –
13 | CC(=O)[C@H]1CC[C@H]2[C@@H]3CCC4=CC(=O)CC[C@]4(C)[C@H]3CC[C@]12C [Progesterone] | > 50 | > 50 | > 50 | > 50 | > 50 | 24.9 ± 5.85 | > 50 | 11.5 ± 5.31 | – | – | > 50 | – | – | – | – | – | –
14 | CN1C[C@H](CO)C=C2c3cccc4[nH]cc(c34)C[C@H]21 [Lysergol] | – | – | > 50 | – | > 50 | > 50 | – | > 50 | – | – | > 50 | – | – | > 50 | > 50 | > 50 | > 50
15 | CN(C)CCCN1c2ccccc2Sc2ccc(Cl)cc21 [Chlorpromazine] | > 25 | 10.6 ± 2.15 | 18.4 ± 3.07 | > 25 | 16.8 ± 3.22 | 16.1 ± 2.29 | 17.6 ± 8.63 | 15.3 ± 4.55 | – | – | 15.5 ± 2.09 | – | – | – | – | – | –
